As a reminder, the EC50 is the concentration at which the effect is half-maximal.

A value given as a limit tells only on which side of the number the result lay.

Holding throughout (format): cell-based
In assay [1] the test system is Bovine parathyroid cells. The method, then: This section describes measuring cyclic AMP levels. Cells were incubated as above for PTH secretion studies and at the end of the incubation, a 0.15-ml sample was taken and transferred to 0.85 ml of hot (70° C.) water and heated at this temperature for 5-10 minutes. The tubes were subsequently frozen and thawed several times and the cellular debris sedimented by centrifugation. Portions of the supernatant were acetylated and cyclic AMP concentrations determined by radioimmunoassay.
Bovine parathyroid cells were cultured for 16 hours with or without 100 ng/ml pertussis toxin. […] Each value is the mean±SEM of three experiments.

Assay [2] relates to Bovine parathyroid cells. Nature of the assay: Inositol phosphate formation in bovine parathyroid cells. The method, then:
After 30 seconds, the reaction was terminated by the addition of CHCl3:MeOH:HCl and IP1 (circles) and IP3 (triangles) separated by anion exchange chromatography. Each point is the mean of 2 experiments, each performed in triplicate.
This section describes procedures measuring inositol phosphate formation. Membrane phospholipids were labeled by incubating parathyroid cells with 4 μCi/ml ^3H-myo-inositol for 20-24 hours. Cells were then washed and resuspended in PCB containing 0.5 mM CaCl2 and 0.1% BSA. Incubations were performed in microfuge tubes in the absence or presence of various concentrations of organic polycation for different times. Reactions were terminated by the addition of 1 ml chloroform-methanol-12 N HCl (200:100:1; v/v/v). Aqueous phytic acid hydrolysate (200 μl; 25 μg phosphate/tube). The tubes were centrifuged and 600 μl of the aqueous phase was diluted into 10 ml water.
Inositol phosphates were separated by ion-exchange chromatography using AG1-X8 in either the chloride- or formate-form. When only IP3 levels were to be determined, the chloride-form was used, whereas the formate form was used to resolve the major inositol phosphates (IP3, IP2, and IP1). […] The last eluate was diluted and counted. […] The eluted samples from the formate columns were rotary evaporated, the residues brought up in cocktail, and counted.

The subject of assay [3] is Bovine parathyroid cells. Put plainly: PTH secretion from bovine parathyroid cells. The conditions noted are these: concentrations that mobilize intracellular Ca2+. Here is the method: PTH secretion was measured by first suspending cells in PCB containing 0.5 mM CaCl2 and 0.1% BSA.
Counting of samples and data reduction were performed on a Packard Cobra 5005 gamma counter.

Assay [4] deals with T1, osteoclast calcium receptor (Rattus norvegicus, UniProt P48442).
T1 sequence (P48442 20-1079): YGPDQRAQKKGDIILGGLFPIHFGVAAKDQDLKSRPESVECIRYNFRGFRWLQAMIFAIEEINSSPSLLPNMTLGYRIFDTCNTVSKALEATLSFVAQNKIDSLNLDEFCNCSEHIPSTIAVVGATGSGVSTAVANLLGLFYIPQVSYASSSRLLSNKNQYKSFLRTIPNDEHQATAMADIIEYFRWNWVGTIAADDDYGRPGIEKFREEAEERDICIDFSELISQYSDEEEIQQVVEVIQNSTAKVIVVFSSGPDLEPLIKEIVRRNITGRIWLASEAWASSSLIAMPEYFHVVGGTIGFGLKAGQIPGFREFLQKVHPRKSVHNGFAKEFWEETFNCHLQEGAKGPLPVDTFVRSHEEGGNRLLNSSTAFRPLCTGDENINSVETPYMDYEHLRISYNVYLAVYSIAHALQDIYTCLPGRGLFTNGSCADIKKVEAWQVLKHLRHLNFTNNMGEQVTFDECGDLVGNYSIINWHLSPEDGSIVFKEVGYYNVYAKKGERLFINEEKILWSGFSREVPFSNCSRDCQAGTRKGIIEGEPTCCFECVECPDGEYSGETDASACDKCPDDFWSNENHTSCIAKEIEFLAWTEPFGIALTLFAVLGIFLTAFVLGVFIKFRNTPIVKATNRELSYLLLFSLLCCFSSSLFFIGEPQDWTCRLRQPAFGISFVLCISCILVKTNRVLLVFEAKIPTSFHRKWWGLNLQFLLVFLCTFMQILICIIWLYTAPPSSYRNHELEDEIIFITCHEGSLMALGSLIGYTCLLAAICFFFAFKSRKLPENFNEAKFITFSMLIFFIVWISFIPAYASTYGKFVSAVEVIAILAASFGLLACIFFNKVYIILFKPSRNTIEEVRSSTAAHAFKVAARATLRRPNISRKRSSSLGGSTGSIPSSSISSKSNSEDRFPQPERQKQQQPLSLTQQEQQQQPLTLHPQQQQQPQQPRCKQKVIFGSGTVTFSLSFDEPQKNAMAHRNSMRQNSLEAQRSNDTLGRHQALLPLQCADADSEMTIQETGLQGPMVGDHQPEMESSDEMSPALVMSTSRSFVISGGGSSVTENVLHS
Nature of the assay: [Ca2+]i (indo-1) in single rat osteoclasts. The following applies: Table 6; rat osteoclasts, indo-1.

The target of assay [5] is T2, human parathyroid cell calcium receptor (Homo sapiens, UniProt P41180, E1011Q/Q926R).
T2 construct: appear to be full-length clones corresponding to the 5 Kb mRNA; expressed in transfected cells; host or cells: Xenopus laevis oocytes injected with pHuPCaR 5.2
T2 sequence (P41180 20-1088 isoform P41180-2 Q936R/E1021Q): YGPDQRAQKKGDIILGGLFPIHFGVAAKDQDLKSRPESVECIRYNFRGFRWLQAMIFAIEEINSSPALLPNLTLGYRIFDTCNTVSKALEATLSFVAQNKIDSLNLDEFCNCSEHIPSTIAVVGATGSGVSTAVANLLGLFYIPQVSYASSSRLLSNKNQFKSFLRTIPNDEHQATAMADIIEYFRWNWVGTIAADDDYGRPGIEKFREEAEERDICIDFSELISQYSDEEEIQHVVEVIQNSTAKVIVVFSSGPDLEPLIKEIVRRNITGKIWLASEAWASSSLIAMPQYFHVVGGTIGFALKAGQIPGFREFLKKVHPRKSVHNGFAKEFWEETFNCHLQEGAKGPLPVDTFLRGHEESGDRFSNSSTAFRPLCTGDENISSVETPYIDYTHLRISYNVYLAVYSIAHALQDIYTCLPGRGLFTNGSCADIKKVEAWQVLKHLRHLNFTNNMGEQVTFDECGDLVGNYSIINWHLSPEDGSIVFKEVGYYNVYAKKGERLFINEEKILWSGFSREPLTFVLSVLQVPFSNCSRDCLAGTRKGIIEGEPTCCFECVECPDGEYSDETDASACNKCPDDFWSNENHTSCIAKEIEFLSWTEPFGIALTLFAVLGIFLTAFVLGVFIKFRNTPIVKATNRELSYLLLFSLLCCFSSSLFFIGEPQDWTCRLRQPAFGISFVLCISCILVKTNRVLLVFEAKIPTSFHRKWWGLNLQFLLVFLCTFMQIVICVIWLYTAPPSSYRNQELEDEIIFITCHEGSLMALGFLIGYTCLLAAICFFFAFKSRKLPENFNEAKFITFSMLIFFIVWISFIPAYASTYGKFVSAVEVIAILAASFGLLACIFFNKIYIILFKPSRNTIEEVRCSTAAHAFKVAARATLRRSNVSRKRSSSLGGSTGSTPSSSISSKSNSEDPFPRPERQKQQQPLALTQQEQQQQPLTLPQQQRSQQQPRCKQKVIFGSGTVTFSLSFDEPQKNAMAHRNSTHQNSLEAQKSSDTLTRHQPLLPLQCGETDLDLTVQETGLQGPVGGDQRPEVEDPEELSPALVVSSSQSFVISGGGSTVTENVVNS
Put plainly: Cl- current in Xenopus oocytes injected with pHuPCaR 5.2. The following applies: 3 to 30 μM; 0.3 mM extracellular Ca2+. The method, then: Xenopus oocytes were injected with pHuPCaR 5.2, the 5.2 Kb cDNA encoding a parathyroid cell calcium receptor derived from a human parathyroid cell adenoma. (See Example 27.) After two to three days, Cl^− currents were measured in the oocytes using a two-electrode voltage clamp.

Assay [6] has as its target T3, bovine parathyroid cell calcium receptor (Bos taurus, UniProt P35384).
T3 construct: isolation of a single clone (BoPCaR 1) with a cDNA insert of 5.3 kb; expressed in transfected cells
T3 sequence (P35384 20-1085): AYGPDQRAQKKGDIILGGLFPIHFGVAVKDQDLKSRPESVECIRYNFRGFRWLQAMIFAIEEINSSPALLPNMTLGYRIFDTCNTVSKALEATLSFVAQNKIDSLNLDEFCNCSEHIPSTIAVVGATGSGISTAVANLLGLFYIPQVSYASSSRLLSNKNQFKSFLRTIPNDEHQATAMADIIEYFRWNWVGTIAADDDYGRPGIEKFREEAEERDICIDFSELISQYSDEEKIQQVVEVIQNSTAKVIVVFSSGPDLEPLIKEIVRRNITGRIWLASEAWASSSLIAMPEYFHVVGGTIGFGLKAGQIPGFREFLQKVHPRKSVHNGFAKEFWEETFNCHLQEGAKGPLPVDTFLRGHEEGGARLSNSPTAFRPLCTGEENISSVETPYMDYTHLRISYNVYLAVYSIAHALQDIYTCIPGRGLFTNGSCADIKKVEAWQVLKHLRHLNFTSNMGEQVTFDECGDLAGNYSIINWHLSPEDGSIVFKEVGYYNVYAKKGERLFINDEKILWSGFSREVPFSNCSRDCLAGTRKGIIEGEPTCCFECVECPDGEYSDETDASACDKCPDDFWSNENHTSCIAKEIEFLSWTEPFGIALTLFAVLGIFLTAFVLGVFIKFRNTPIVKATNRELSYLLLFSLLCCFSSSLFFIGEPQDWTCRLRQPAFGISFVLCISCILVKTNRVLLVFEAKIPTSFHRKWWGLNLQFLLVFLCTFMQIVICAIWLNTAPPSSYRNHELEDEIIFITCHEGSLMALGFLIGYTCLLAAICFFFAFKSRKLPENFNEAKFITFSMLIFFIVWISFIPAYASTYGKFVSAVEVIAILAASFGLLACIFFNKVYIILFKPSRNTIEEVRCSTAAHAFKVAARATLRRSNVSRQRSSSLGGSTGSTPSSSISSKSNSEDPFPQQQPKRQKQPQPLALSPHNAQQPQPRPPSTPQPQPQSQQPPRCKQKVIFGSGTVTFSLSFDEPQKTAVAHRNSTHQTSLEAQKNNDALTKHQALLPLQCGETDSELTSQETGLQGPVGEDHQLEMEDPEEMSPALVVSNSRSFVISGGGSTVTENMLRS
Nature of the assay: Cl- current in Xenopus oocytes injected with BoPCaR 1. The following applies: 1 mM extracellular Ca2+. The method, then:
Several pharmacological and biochemical criteria were used to identify this clone as encoding a bona fide bovine parathyroid Ca^2+ receptor. […] These responses increased markedly over a period of one to four days after injection of the eggs with cRNA prepared from the BoPCaR 1 cDNA. Furthermore, the ranges of the concentrations of the two cations eliciting this response were very similar to those shown previously to act on bovine parathyroid cells in vitro.
Xenopus oocytes were injected with BoPCaR 1, the 5.3 Kb cDNA encoding a bovine parathyroid cell calcium receptor as described in Example 25. After two to three days, Cl^− currents were examined in the oocytes using a two-electrode voltage clamp.
Xenopus oocytes were injected with BoPCaR 1 as described in Example 25. After two to three days, Cl^− currents were examined in the oocytes using two electrode voltage clamp.

For protamine, the “cyclic AMP (% of control), control” value with Bovine parathyroid cells [1] is reported as 20 ± 4 % of control. Also, the “formation of IP3” value with Bovine parathyroid cells [2] is given as “rapid (within 30 seconds) increase in the formation of IP3”. In addition, in the assay on Bovine parathyroid cells [3], the PTH secretion result is “inhibited PTH secretion to the same extent as extracellular Ca^2+”.
With `NCCCNCCCCNCCCNCCCNCCCNC(=O)Cc1c[nH]c2ccccc12` [NPS 019], in assay [4], the EC50 is more than 300 µM. The figures for the Cl- current result in assay [5] and in assay [6] were “evoked increases in the Cl^− current” and “oscillatory increases in the Cl^− current”, respectively.
